The values below come from patent US8580730B2, “Methods of treating lesional vestibular disorders by administering serotonin 5-HT3 receptor antagonists” ((INSERM) Institut National de la Sante et de la Recherche …, priority 2009, dated 2013).

Data set [1] relates to patients with suspicion of vestibular neuritis. The data set is described as follows: Clinical study of vestibular deficit following acute vestibular neuritis (VNG, hospitalization, first walk). The format is in vivo, human. Conditions: 5 days treatment, ondansetron 8 mg/d vs metoclopramide 30 mg/d, n=10 each; for vestibular deficit, VNG at 1 month / vestibular deficit, early VNG (caloric tests): with methylprednisolone and valacyclovir; for vestibular deficit, VNG at 1 month: p=0.07; for vestibular deficit, early VNG (caloric tests): VNG 24 to 48 hours after beginning of deficit; for vestibular deficit, early VNG (caloric tests) / hospitalization duration: p=0.03; for time of first walk: p=0.001. On the procedure: Methods: A clinical study conducted by the inventors at the Centre Hospitalier Universitaire (CHU) of Montpellier was carried out. Random clinical tests were performed on 20 patients. Patients were selected on the suspicion of vestibular neuritis started for less than 24 h before the hospitalization. The patients were all administered with methylprednisolone and valacyclovir, and either a 5 days treatment with Metoclopramide (30 mg/d, n=10) or with Ondansetron (8 mg/d, n=10). The functional evaluation was based on a early VNG (vestibulonystagmography) test (realized 24 to 48 hours after the beginning of the vestibular deficit) and a VNG at 1 month. The hospitalization duration and the date of the first walk were also recorded.

Data set [2] deals with IDPN-induced bilateral vestibular deficit. The data set can be described thus: Behavioral evaluation of bilateral (nitrile, IDPN)-induced vestibular deficit. The format is in vivo, rat. The source says: Vestibular rating score was estimated as previously described (Brugeaud et al., 2007; Boadas-Vaello et al. 2005). Animals were scored from range 0 to 4, respectively corresponding to normal behavior to maximal vestibular deficit. Rating 1 means that the behavior is not normal but no specific vestibular deficit is effectively determined; rating 2 corresponds to an identified but slight vestibular deficit and, rating 3 describes an identified and evident deficit. Six different tests were sequentially scored and totalized to rate the vestibular deficit: 1—the head bobbing, when abnormal intermittent backward extension of the neck was observed; 2—the circling stereotyped movement ranging from none to compulsive circles around the animal hips; 3—the retro-pulsion, a typical backward walk reflecting vestibular disturbance; 4—the tail-hanging reflex, that normally induces a normal forelimb extension to reach the ground, results in the ventral bent of the body and grip of the tail when the vestibular deficit is maximal; 5—the contact-inhibition reflex normally leads animal hold to a metal grid in a subpine position to return when their back touch the ground; in case of vestibular deficit with a lack in the body orientation referential, this reflex is abolished, the animal stays griped to the grid in a supine position; 6—the air-righting reflex is necessary for animals to land on their feet when they fall from a supine position; vestibular dysfunction impairs this normal reversal, a maximal deficit leads the animal to land on its back when dropped from a height of 40 cm onto a foam cushion. Vestibular rating scores were expressed for each time point as a percentage of the t0 score.
Validation of the restorative effect of said serotonin 5-HT3 antagonist is also assessed on animal model of bilateral vestibular deficit by analysing the time course of arrival and removal of both excitotoxic lesions and ensuing vestibular deficit following intoxication with nitriles (IP injection—Seoane et al., J. Comp. Neurol. 2001, 439:385-399). […] Protection is assessed by administration of said serotonin 5-HT3 antagonist following different schedules (at the start of chronic intoxication; 24 and 48 h after).
IDPN (1 g/kg; ip) induces bilateral and permanent vestibular damage through destruction of the vestibular sensory epithelium. […] We assessed the effect of IDPN injection using behavioral testing of vestibular deficits. We evaluated the protective effect of single or double injections of ondansetron throughout the time course of injury progression following IDPN injection to determine the vestibuloprotective potential of ondansetron. […]

Data set [3] concerns hair cells and synaptic terminals of vestibular sensory epithelia (utricles). The data set is described as follows: Histological and morphometric evaluation of kainate-induced vestibular lesions. The format is in vivo, rat. Conditions: 4 mg/kg ip 1 h after KA. As to the method: 1 h after KA injection, vestibular behavior of the animals was tested followed by ondansetron injection in the treatment group. […] Subsequently, the animals were tested at 2 h, 6 h, 24 h and 48 h after KA injection. Histological and morphometric analysis were performed at 2 and 24 hours after KA injection in the presence and absence of ondansetron treatment.
Preparation of semi-thin sections of sensory epithelia. We anesthetized female adult rats (Wistar; 200-220 g; n=3 for each treatment) with pentobarbital (0.4%). Animals were perfused transcardially with heparin PBS (0.01M) followed by a fixative solution (2% paraformaldehyde, 2.5% glutaraldehyde 1% picric acid, 5% sucrose) and samples post-fixed. […] Whole vestibular organs were postfixed in 2% OsO4, dehydrated, embedded in Araldite, and 1 μm thick sections were cut. A Nanozoomer Slide Scanner (RIO imaging, Montpellier, France) allowed the observation and scanning of samples mounted on slides.
Scans of semi-thin sections acquired with the Nanozoomer Slide Scanner were analyzed. Quantification of hair cells in utricles was done with Metamorph software (Universal Imaging). For each lesioned and contralateral ear, 3 sections distant of 20 to 25 μm each were analyzed. Thus, 400 cells for each epithelium were counted for each treatment on 3 different animals with the contralateral ear as pooled control. […] ANOVA was used to search for statistical difference, followed by Tukey Test to compare between treatments.

Data set [4] in a line: Stability of solution comprising ondansetron base. The format is physicochemical. Conditions: 1 month storage. On the procedure: Chemical stability of the solution was also assessed: […]
For data set [5], the system named is kainate-induced unilateral vestibular deficit. The data set can be described thus: Behavioral evaluation of excitotoxically (kainate)-induced unilateral vestibular deficit. The format is in vivo, rat. To be noted: 4 mg/kg ip 1 h after transtympanic KA injection; 24 h after KA; vs untreated; p=0.022 Mann Whitney. As to the method:
Validation of the restorative effect of said serotonin 5-HT3 antagonist is assessed by analysing the time course of arrival and removal of both excitotoxic lesions and ensuing vestibular deficit that occur within vestibular endorgans during intra auricular application of glutamate agonists. In the vestibular endorgans, massive application of kainic acid induces excitotoxic impairments of the neuronal network in the sensory organs (swelling of terminals that contact hair cells-Brugeaud et al., 2007). Histological studies of the expansion and reduction of excitotoxic lesions are undertaken using light and electron microscopy. Behavioural evaluation of vestibular deficit is undertaken using specific behavioural tests of the vestibular function. Under the paradigm developed in the rat, transtympanic application of kainic acid allows its diffusion into the inner ear. […] We evaluate the effect of KA injection using behavioral testing of vestibular deficits and histological quantification of the induced lesion. […] Animals were scored from range 0 to 4, respectively corresponding to normal behavior to maximal vestibular deficit. Rating 1 means that the behavior is not normal but no specific vestibular deficit is effectively determined; rating 2 corresponds to an identified but slight vestibular deficit and, rating 3 describes an identified and evident deficit. […]

“Also recorded” adds a separate entry of the source.

For the molecule `CCN(CC)CCNC(=O)c1cc(Cl)c(N)cc1OC` [Metoclopramide], in data set [1], the “vestibular deficit, VNG at 1 month” value is listed as 63,4%; the “vestibular deficit, early VNG (caloric tests)” value (from here on “vestibular deficit, early VNG”) was found to be 84.38%; the “time of first walk” value stood at 2.25 days; the hospitalization duration was determined as 4.5 days. Further, the “vestibular deficit, VNG at 1 month” value in data set [1] (listed as M) came to 63.4%. In addition, in data set [1] (listed as metoclopramid), the “vestibular deficit, early VNG” value was 84,38%.
As to `Cc1nccn1CC1CCc2c(c3ccccc3n2C)C1=O` (centres unmarked) [Ondansetron, 1,2,3,9-tetrahydro-9-methyl-3-[(2-methyl-1H-imidazol-1-yl)methyl]-4H-carbazol-4-one], the “time course of increasing vestibular deficits” value in data set [2] (1 dose 4 mg/kg ip 24 h after IDPN injection), in data set [2] (1 dose 4 mg/kg ip 48 h after IDPN injection) and in data set [2] (1 dose 4 mg/kg ip simultaneously with IDPN 1 g/kg ip) was “not significantly altered” throughout. Also, the “time course of increasing vestibular deficit / vestibular deficits at 54 h” value in data set [2] (2 doses 4 mg/kg ip 24 and 48 hours after IDPN injection, at 54 h, 4 mg/kg) is on record as “significant modification; also recorded: significantly less severe”. Also, in data set [3] (24 hrs after the KA lesion, P<0.01), the “number of not-determined hair cells” value is listed as “significantly reduced”. Further, the “number of type I hair cells” value in data set [3] (24 hrs after the KA lesion, p<0.01) is “significantly increased”. Besides, the “maturation of neo-formed synaptic terminals (photonic microscopy)” value in data set [3] (24 hrs after the lesion) was “seemed to potentiate”. Besides, the “vestibular deficit, VNG at 1 month” value in data set [1] was 43,0%; in data set [1] (listed as O), 43%. The “vestibular deficit, early VNG” value in data set [1] is on record as 56,53%. In addition, in data set [1], the “time of first walk” value was determined as 1.25 days. In data set [1], this molecule returned a hospitalization duration of 2.88 days. The “chemical degradation with pH modification” value in data set [4] is “not associated to significant chemical degradation”. Moreover, in data set [5], the “vestibular deficits (vestibular rating score) at 24 hours” value is “significantly reduced”.
